Patent US8647828B2, “Intracellular targeting of molecules via syndecan-4” (Szilak Laboratories Bioinformatics & Molecule-Design Ltd., priority 2007, dated 2014)
Where two headings read alike, the source gives them in different places.

System: nucleus of the cell
Type: cell-based
Settings: peptide fused to GFP reporter

| Substance | localization of GFP reporter chimera in the cell | localization of GFP reporter chimera in the cell (listed as GFP-Ser179Glu mutant chimera) |
| --- | --- | --- |
| SEQ ID NO: 2 (MYRMKKKDEGEYDLGKKPIYKKAPTNEFYA; from the cytoplasmic domain of syndecan-4 position Ser179 mutated into Glu) | accumulation of the reporter was detected in the nuclei | nuclear accumulation |
| MYRMKKKDEGSYDL (MYRMKKKDEGSYDLGKKPIYKKAPTNEFYA; from the cytoplasmic domain of syndecan-4 Ser11 of the sequence equals position Ser179 of the full length protein) [SEQ ID NO: 1] | homogenously dispersed in the cells |  |
